# In US20200368336A1, “METHOD FOR PREPARING PERSONALIZED CANCER VACCINE” (SHANGHAI JENOMED BIOTECH CO., LTD., priority 2017, published 2020):
# System: mouse MHC molecule (MHC class I molecules)
# Experiment: predicted affinity of short peptide chain to mouse MHC molecule (correlation analysis software)
# Conditions: mutant vs wild-type
# Protocol: The tumor neoantigen of mice were analyzed by the following methods: mouse H-2 typing software was used to classify mouse H-2 molecules, and using software such as Sentieon TNscope, the DNA exome sequencing sequence of the peripheral blood mononuclear cells of cancer-bearing mice was used as a control to isolate tumor neoantigen from the sequencing sequence of CTC DNA exome of cancer-bearing mice, and the correlation analysis software was used to predict the affinity of the short peptide chain tumor neoantigen and its corresponding wild-type short peptide chain to the mouse MHC molecule.
sequence,measurement,value
KAIRNVLII [preferred tumor neoantigen peptide screened from CTC of cancer-bearing mice],affinity of neoantigen higher than that of corresponding wild-type short peptide chain,about 556 times
